Experimental data from the supplement of paper PMC8612539.
In brackets after ≈: the same amount, converted by molar mass.

Experiments:
Enterococcus spp. = assay: minimum inhibitory concentration (MIC)
Experimental: (§1)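 Broth microdilution MIC (Sensititre BOPO7F bovine plate, CLSI methods) of 19 antimicrobials against field isolates of P. multocida, M. haemolytica, H. somni (deep nasopharyngeal swabs) and E. coli, Enterococcus spp. (rectal swabs) from weaned dairy heifers. Incubation 16-24 h at 35 C. MIC is the lowest concentration preventing visible growth. Values with <= or > lie at the tested range limits. Trimethoprim-sulfamethoxazole is given as the trimethoprim component of a 1:19 mixture.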

Histophilus somni = assay: minimum inhibitory concentration (MIC)
Experimental: as §1

CC1(C)S[C@@H]2[C@H](NC(=O)[C@H](N)c3ccccc3)C(=O)N2[C@H]1C(=O)O [Ampicillin]
minimum inhibitory concentration [µg/mL]
Conditions	Enterococcus spp.	Histophilus somni
isolate (source animal id): 2	≤ 0.25	–
isolate (source animal id): 3	–	≤ 0.25
isolate (source animal id): 4	–	0.5 (≈ 1.43 µM)
isolate (source animal id): 7	–	≤ 0.25
isolate (source animal id): 14	–	≤ 0.25
isolate (source animal id): 15	–	≤ 0.25
isolate (source animal id): 17	–	≤ 0.25
isolate (source animal id): 18	–	≤ 0.25
isolate (source animal id): 20	–	≤ 0.25
isolate (source animal id): 23	–	≤ 0.25
isolate (source animal id): 35	1 (≈ 2.86 µM)	–
isolate (source animal id): 42	1 (≈ 2.86 µM)	–
isolate (source animal id): 44	1 (≈ 2.86 µM)	–
isolate (source animal id): 45	–	≤ 0.25
isolate (source animal id): 53	–	≤ 0.25
isolate (source animal id): 79	1 (≈ 2.86 µM)	–
isolate (source animal id): 83	–	≤ 0.25
isolate (source animal id): 88	≤ 0.25	≤ 0.25
isolate (source animal id): 91	≤ 0.25	–
isolate (source animal id): 92	0.5 (≈ 1.43 µM)	≤ 0.25
isolate (source animal id): 93	–	≤ 0.25
isolate (source animal id): 99	–	≤ 0.25
isolate (source animal id): 100	–	≤ 0.25
isolate (source animal id): 105	–	≤ 0.25
isolate (source animal id): 107	–	≤ 0.25
isolate (source animal id): 108	–	≤ 0.25
isolate (source animal id): 109	–	≤ 0.25
isolate (source animal id): 110	–	≤ 0.25
isolate (source animal id): 111	≤ 0.25	–
isolate (source animal id): 117	–	≤ 0.25
isolate (source animal id): 121	–	≤ 0.25
isolate (source animal id): 122	1 (≈ 2.86 µM)	–
isolate (source animal id): 123	1 (≈ 2.86 µM)	≤ 0.25
isolate (source animal id): 124	–	≤ 0.25
isolate (source animal id): 127	–	≤ 0.25
isolate (source animal id): 128	–	≤ 0.25
isolate (source animal id): 130	–	> 16
isolate (source animal id): 132	–	≤ 0.25
isolate (source animal id): 133	0.5 (≈ 1.43 µM)	–
isolate (source animal id): 135	–	≤ 0.25
isolate (source animal id): 140	–	≤ 0.25
isolate (source animal id): 141	–	≤ 0.25
isolate (source animal id): 142	–	≤ 0.25
isolate (source animal id): 144	–	≤ 0.25
isolate (source animal id): 146	–	≤ 0.25
isolate (source animal id): 147	–	≤ 0.25
isolate (source animal id): 151	–	≤ 0.25
isolate (source animal id): 153	–	≤ 0.25
isolate (source animal id): 154	–	≤ 0.25
isolate (source animal id): 156	–	≤ 0.25
isolate (source animal id): 157	–	≤ 0.25
isolate (source animal id): 158	1 (≈ 2.86 µM)	–
isolate (source animal id): 168	1 (≈ 2.86 µM)	–
isolate (source animal id): 169	1 (≈ 2.86 µM)	–
isolate (source animal id): 171	0.5 (≈ 1.43 µM)	–
isolate (source animal id): 175	1 (≈ 2.86 µM)	–
isolate (source animal id): 176	–	≤ 0.25
isolate (source animal id): 177	1 (≈ 2.86 µM)	–
isolate (source animal id): 181	1 (≈ 2.86 µM)	–
isolate (source animal id): 182	2 (≈ 5.72 µM)	–
isolate (source animal id): 183	1 (≈ 2.86 µM)	≤ 0.25
isolate (source animal id): 186	–	≤ 0.25
isolate (source animal id): 187	2 (≈ 5.72 µM)	–
isolate (source animal id): 190	2 (≈ 5.72 µM)	–
isolate (source animal id): 194	0.5 (≈ 1.43 µM)	–
isolate (source animal id): 195	1 (≈ 2.86 µM)	–
isolate (source animal id): 196	–	≤ 0.25
isolate (source animal id): 197	0.5 (≈ 1.43 µM)	–
isolate (source animal id): 198	–	≤ 0.25
isolate (source animal id): 200	–	≤ 0.25
isolate (source animal id): 206	–	≤ 0.25
isolate (source animal id): 208	–	≤ 0.25
isolate (source animal id): 210	–	≤ 0.25
isolate (source animal id): 211	1 (≈ 2.86 µM)	–
isolate (source animal id): 212	–	≤ 0.25
isolate (source animal id): 214	0.5 (≈ 1.43 µM)	–
isolate (source animal id): 215	–	≤ 0.25
isolate (source animal id): 216	–	≤ 0.25
isolate (source animal id): 218	–	≤ 0.25
isolate (source animal id): 219	–	≤ 0.25
isolate (source animal id): 222	0.5 (≈ 1.43 µM)	–
isolate (source animal id): 223	0.5 (≈ 1.43 µM)	–
isolate (source animal id): 224	–	≤ 0.25
isolate (source animal id): 228	1 (≈ 2.86 µM)	≤ 0.25
isolate (source animal id): 230	2 (≈ 5.72 µM)	≤ 0.25
isolate (source animal id): 233	–	≤ 0.25
isolate (source animal id): 235	1 (≈ 2.86 µM)	–
isolate (source animal id): 236	0.5 (≈ 1.43 µM)	–
isolate (source animal id): 238	–	≤ 0.25
isolate (source animal id): 239	0.5 (≈ 1.43 µM)	≤ 0.25
isolate (source animal id): 241	2 (≈ 5.72 µM)	≤ 0.25
isolate (source animal id): 242	–	≤ 0.25
isolate (source animal id): 243	–	≤ 0.25
isolate (source animal id): 244	0.5 (≈ 1.43 µM)	–
isolate (source animal id): 245	–	≤ 0.25
isolate (source animal id): 246	1 (≈ 2.86 µM)	≤ 0.25
isolate (source animal id): 247	2 (≈ 5.72 µM)	≤ 0.25
isolate (source animal id): 248	–	≤ 0.25
isolate (source animal id): 250	0.5 (≈ 1.43 µM)	≤ 0.25
isolate (source animal id): 251	–	≤ 0.25
isolate (source animal id): 252	1 (≈ 2.86 µM)	≤ 0.25
isolate (source animal id): 254	–	≤ 0.25
isolate (source animal id): 258	–	≤ 0.25
isolate (source animal id): 259	–	≤ 0.25
isolate (source animal id): 262	–	≤ 0.25
isolate (source animal id): 264	–	≤ 0.25
isolate (source animal id): 265	–	4 (≈ 11.4 µM)
isolate (source animal id): 266	–	≤ 0.25
isolate (source animal id): 267	–	≤ 0.25
isolate (source animal id): 268	≤ 0.25	–
isolate (source animal id): 269	–	≤ 0.25
isolate (source animal id): 271	–	≤ 0.25
isolate (source animal id): 272	–	4 (≈ 11.4 µM)
isolate (source animal id): 274	–	≤ 0.25
isolate (source animal id): 276	–	≤ 0.25
isolate (source animal id): 278	–	≤ 0.25
isolate (source animal id): 280	–	1 (≈ 2.86 µM)
isolate (source animal id): 281	–	≤ 0.25
isolate (source animal id): 282	1 (≈ 2.86 µM)	–
isolate (source animal id): 283	–	≤ 0.25
isolate (source animal id): 285	1 (≈ 2.86 µM)	–
isolate (source animal id): 288	–	≤ 0.25
isolate (source animal id): 289	≤ 0.25	–
isolate (source animal id): 290	≤ 0.25	–
isolate (source animal id): 291	–	≤ 0.25
isolate (source animal id): 292	–	≤ 0.25
isolate (source animal id): 296	≤ 0.25	≤ 0.25
isolate (source animal id): 298	≤ 0.25	–
isolate (source animal id): 301	≤ 0.25	–
isolate (source animal id): 306	–	≤ 0.25
isolate (source animal id): 310	1 (≈ 2.86 µM)	–
isolate (source animal id): 320	≤ 0.25	–
isolate (source animal id): 331	≤ 0.25	–
isolate (source animal id): 333	≤ 0.25	–
isolate (source animal id): 336	–	≤ 0.25
isolate (source animal id): 337	–	≤ 0.25
isolate (source animal id): 341	0.5 (≈ 1.43 µM)	≤ 0.25
